Experimental data: PMC6100113, “Involvement of CYP4F2 in the Metabolism of a Novel Monophosphate Ester Prodrug of Gemcitabine and Its Interaction Potential In Vitro” (Molecules : A Journal of Synthetic Chemistry and Natural …, 2018)

Tests used:
[1] = Metabolic stability in human liver microsomes; assay type: in vitro ADME; conditions: 1 μM
Procedure: (§1) Stability of Compound-3 was first investigated in microsomal systems from human and rat. The microsomal protein and Compound-3 concentrations were optimized to 0.2 mg/mL and 1 µM, respectively. Before the start of the incubation, reaction mixtures containing phosphate buffer (100 mM, pH 7.4), microsomes and Compound-3 in a total volume of 50 µL were warmed up at 37 °C for 10 min. The reaction was started with the addition of NADPH at a final concentration of 1 mM. Incubations were terminated at a specified time with the addition of 100 µL ice-cold acetonitrile containing the internal standard. The samples were then centrifuged, and aliquots of 10 µL of the supernatants were transferred into liquid chromatography-tandem mass spectrometry (LC-MS/MS) for the analysis of Compound-3 levels.

[2] = Metabolic stability in rat liver microsomes; assay type: in vitro ADME; conditions: rat liver microsomes 0.2 mg/mL, with NADPH, 1 μM, 37 °C
Procedure: as §1

[3] = Metabolic stability in human hepatocytes; assay type: in vitro ADME; conditions: human hepatocytes 1 × 10^6 cell/mL, 1 μM, 37 °C
Procedure: For stability evaluation in human hepatocytes, cryopreserved primary human hepatocytes were revived according to vendor’s protocol and diluted to a density of 1 × 10^6 cell/mL with William’s Medium. The reaction was started with the addition of Compound-3 (1 μM). At specified time points, aliquots of 25 μL of the reaction mixtures were transferred into 100 μL ice-cold acetonitrile containing the internal standard. The samples were then centrifuged, and aliquots of 10 μL of the supernatants were transferred onto LC-MS/MS for the analysis of Compound-3 levels and its metabolites.

[4] = Metabolite identification by UPLC/Triple TOF MS in human liver microsomes; assay type: in vitro ADME; parameters: key: √: metabolites were detected by high-resolution mass spectrometry; conditions: Compound-3 10 μM, 1 mg/mL microsomes, NADPH, 60 min, HRMS
Procedure: (§2) For metabolite identification, a higher concentration of Compound-3 (10 μM) was incubated with liver microsomes (1 mg/mL) in the presence of NADPH (1 mM) and primary human hepatocytes at a density of 1 × 10^6 cell/mL. Samples were collected at 0 min and 60 min with the addition of ice-cold acetonitrile. After vortexing and centrifugation, the supernatant was transferred into a new tube and evaporated to dryness. The samples were then reconstituted in 100 μL of water and methanol (v/v, 9:1). An aliquot of 10 μL of reconstituted solution was injected into UPLC/Triple TOF 5600^+ MS for metabolite identification.
(§3) Identification of Compound-3 metabolites was carried out using Acquity UPLC/Triple TOF 5600^+ system. Chromatographic separation for Compound-3 and its metabolites were achieved by an Acquity UPLC HSS T3 column (100 × 2.1 mm i.d., […]; Waters Corp.) maintained at 40 °C. The mobile phase was a mixture of 0.02% formic acid in 5 mM ammonium acetate (A) and methanol (B). The gradient elution was started from 2% B and maintained for 4 min, then increased linearly to 75% B over the next 4 min and maintained for 8 min. […] The flow rate was 0.4 mL/min and the eluent was monitored by UV detection at 280 nm.
(§4) For mass detection, a Triple TOF 5600^+ mass spectrometer (AB Sciex, Framingham, MA, USA) was operated in positive ion electrospray (ES-positive) mode with the source temperature at 500 °C and scan range from m/z 100 to 1000 Da. Other parameters were set as follows: ion spray voltage, 5500 V; decluttering potential, 80 V; curtain gas, 40 psi; ion source gas 1, 55 psi; and ion source gas 2, 50 psi. Collision energies of 25 and 65 eV were used for TOF MS and product ion scans, respectively, and a collision energy spread of 20 was used in the MS/MS analysis. Information-dependent acquisition (IDA), together with real-time multiple mass defect filter, was used to trigger acquisition of MS/MS spectra.

[5] = Metabolite identification by UPLC/Triple TOF MS in human intestinal microsomes; assay type: in vitro ADME; parameters: key: √: metabolites were detected by high-resolution mass spectrometry; conditions: Compound-3 10 μM, NADPH, 60 min, HRMS
Procedure: as §2, §3, §4

[6] = biological target: T1, CYP4F2 (Homo sapiens, UniProt P78329); assay: Reaction phenotyping with recombinant CYP4F2; assay type: in vitro ADME; conditions: recombinant CYP4F2 50 nM, 1 μM, NADPH, after 30 min incubation
T1 construct: purchased Corning Gentest
T1 sequence (P78329 5-520): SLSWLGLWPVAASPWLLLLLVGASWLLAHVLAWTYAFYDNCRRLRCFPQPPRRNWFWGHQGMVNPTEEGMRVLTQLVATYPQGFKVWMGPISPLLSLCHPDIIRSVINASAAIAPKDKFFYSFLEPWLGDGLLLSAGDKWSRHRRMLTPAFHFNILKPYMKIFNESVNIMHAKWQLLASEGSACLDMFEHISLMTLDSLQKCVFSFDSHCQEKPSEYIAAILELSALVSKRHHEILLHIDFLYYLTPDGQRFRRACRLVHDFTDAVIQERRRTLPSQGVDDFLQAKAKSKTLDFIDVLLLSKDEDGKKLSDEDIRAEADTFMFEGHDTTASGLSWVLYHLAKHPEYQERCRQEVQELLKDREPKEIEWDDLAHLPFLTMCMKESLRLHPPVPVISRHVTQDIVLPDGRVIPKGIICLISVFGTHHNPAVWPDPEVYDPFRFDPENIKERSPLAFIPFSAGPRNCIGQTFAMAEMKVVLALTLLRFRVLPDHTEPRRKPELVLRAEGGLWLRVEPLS
Procedure: Compound-3 was incubated separately with human cDNA-expressed cytochrome P450s (CYP1A2, CYP2B6, CYP2C8, CYP2C9, CYP2C19, CYP2D6, CYP3A4, CYP4A11, CYP4F2 and CYP4F3). The incubation mixtures contained individual CYP isoenzymes (50 nM), potassium phosphate buffer (100 mM, pH 7.4), NADPH (1 mM), and Compound-3 (1 µM). The final volume of the incubation mixture was 50 µL. Before the start of the incubation, reaction mixtures were warmed up at 37 °C for 10 min. The reaction was initiated with the addition of NADPH and the incubations were performed at 37 °C in a water bath. […] Control samples without NADPH but substrates were included. The samples were then centrifuged and aliquots of 10 μL of the supernatants were transferred onto LC-MS/MS for the analysis of Compound-3 and M4 (carboxylic acid) levels.
The following are available online. Figure S1. Gemcitabine Formation from Compound-3 Hydrolysis as a function of alkaline phosphatase protein concentrations. Compound-3 (1 μM) was incubated with alkaline phosphatase concentrations ranging from 0.01–0.2 mg/mL at 37 °C (n = 3). Figure S2. Metabolites of Compound-3 in human recombinant CYP4F2. Compound-3 (1 μM) was incubated with human recombinant CYP4F2 (50 nM) in the presence of NADPH at 37 °C (n = 3).

[7] = tested on: tumor; conditions: in vitro and in vivo testing in the preclinical setting; cited from earlier work

## CCCCCCCCCCCCCCCCCCOCCOP(=O)(O)OCC1OC(n2ccc(N)nc2=O)C(F)(F)C1O (centres unmarked) [Compound-3]
[1]; human and rat liver and intestinal microsomes, absence of NADPH
  stability in microsomes in the absence of NADPH: relatively stable
[1]; human liver microsomes 0.2 mg/mL, with NADPH, 37 °C, 60 min
  disappearance after 60 min incubation: more than 70%
[2]
  disappearance in 60 min: ~ 10%
[3]
  disappearance after 60 min incubation: ~ 30%
[4]
  detected in matrix HLM: √
[5]
  detected in matrix HIM: √
[6]
  disappearance of Compound-3 in the presence of CYP isozyme: barely detectable
[7]
  antitumor activity as compared to gemcitabine itself and LY2334737: enhanced antitumor activity
